From patent publication US12187662B2, “FOXM1 inhibitor compositions and methods of using the same” (The Board of Trustees of the University of Illinois, priority 2018, dated 2025)
Read-outs that look alike come from different tables or passages of the source.

Experiments:
MCF7 cells = experiment: Cell proliferation assay (WST-1), MCF7; assay type: cell-based, human
Procedure: (§1) All cells were tested for mycoplasma using Real-Time PCR Mycoplasma Detection Kit (Akron Biotech, Boca Raton, FL).
(§2) All assays were performed in triplicate.

[1] = Pharmacokinetic studies in mice after single s.c. or oral dose
Procedure: For s.c. injection, each compound was dissolved in DMSO and then mixed with corn oil for a total injection volume of 100 μL (10% DSMO+90% corn oil) per mouse. For oral gavage, compounds were administered in a 200 μL formulation of 9/0.5/0.5/90 parts of PEG400/Tween80/Povidone/0.5% Carboxymethylcellulose. […] Compounds were quantified by LC-MS/MS at the University of Illinois Metabolomics Core Facility. The data were fitted to a non-compartment model.

DT22 cells = experiment: Cell proliferation assay (WST-1), DT22; assay type: cell-based, human; conditions: Homo sapiens, DT-22, inhibition of cell proliferation
Procedure: as §1, §2

[2] = inhibition of cell proliferation, read-out: IC50 MCF7
[3] = Homo sapiens, MCF7, inhibition of cell proliferation, read-out: IC50 MCF7

Molecule	IC50 (MCF7 cells; [3]) [µM]	other results
1-(6-(4-((Z)-((5S,7S)-adamantan-2-ylidene)(4-chlorophenyl)methyl)phenoxy)hexyl)-1-methylazepan-1-ium iodide [NB-85]	–	IC50 (MCF7 cells; [2]): 9.8 µM
1-(6-(4-((Z)-((5S,7S)-adamantan-2-ylidene)(4-chlorophenyl)methyl)phenoxy)hexyl)-1H-imidazole [NB-60]	–	IC50 (MCF7 cells; [2]): 16 µM
1-(6-(4-((Z)-((5S,7S)-adamantan-2-ylidene)(4-chlorophenyl)methyl)phenoxy)hexyl)-4-methylpiperazine [NB-64]	–	IC50 (MCF7 cells; [2]): 3 µM
c1cn(CCCCCCOc2ccc(C(=C3C4CC5CC(C4)CC3C5)c3ccc(OCCCCCCn4ccnc4)cc3)cc2)cn1 [NB-61, 1,1′-((((((5r,7r)-adamantan-2-ylidene)methylene)bis(4,1-phenylene))bis(oxy))bis(hexane-6,1-diyl))bis(1H-imidazole)]	7.5	–
C[n+]1ccn(CCCCCCOc2ccc(C(=C3C4CC5CC(C4)CC3C5)c3ccc(Cl)cc3)cc2)c1 [NB-62, 1-(6-(4-((Z)-((5S,7S)-adamantan-2-ylidene)(4-chlorophenyl)methyl)phenoxy)hexyl)-3-methyl-1H-imidazol-3-ium iodide]	5.5	half-life ([1]; female, CD-1, mouse, plasma, sc, 40 mg/kg): 36.8 h; AUC(0-t) ([1]; female, CD-1, mouse, plasma, sc, 40 mg/kg, PK s.c. AUC0-48, mice, 40 mg/kg s.c.): 150 µM·h; PK p.o. AUC0-48 ([1]; mice, 40 mg/kg p.o.): too low to measure
CN1CC[N+](C)(CCCCCCOc2ccc(C(=C3C4CC5CC(C4)CC3C5)c3ccc(OCCCCCC[N+]4(C)CCN(C)CC4)cc3)cc2)CC1 [NB-69, 1,1′-((((((5r,7r)-adamantan-2-ylidene)methylene)bis(4,1-phenylene))bis(oxy))bis(hexane-6,1-diyl))bis(1,4-dimethylpiperazin-1-ium) dimethanesulfonate]	6	–
c1cc(C(=C2C3CC4CC(C3)CC2C4)c2ccc(OCCCCCCN3CCCCCC3)cc2)ccc1OCCCCCCN1CCCCCC1 [NB-72, 1,1′-((((((5r,7r)-Adamantan-2-ylidene)methylene)bis(4,1-phenylene))bis(oxy))bis(hexane-6,1-diyl))bis(azepane)]	–	IC50 (MCF7 cells; Homo sapiens, MCF7, read-out: IC50 MCF7): 0.7 µM; IC50 (DT22 cells): 0.7 µM
Clc1ccc(C(=C2C3CC4CC(C3)CC2C4)c2ccc(OCCCCCCN3CCCCC3)cc2)cc1 [NB-118, 1-(6-(4-((Z)-((5S,7S)-Adamantan-2-ylidene)(4-chlorophenyl)methyl)phenoxy)hexyl)piperidine]	4.4	–
Clc1ccc(C(=C2C3CC4CC(C3)CC2C4)c2ccc(OCCCCCCN3CCCCCC3)cc2)cc1 [NB-119, 1-(6-(4-((Z)-((5S,7S)-Adamantan-2-ylidene)(4-chlorophenyl)methyl)phenoxy)hexyl)azepane]	4.2	–
c1cc(C(=C2C3CC4CC(C3)CC2C4)c2ccc(OCCCCN3CCCCC3)cc2)ccc1OCCCCN1CCCCC1 [NB-120, 1,1′-((((((5r,7r)-adamantan-2-ylidene)methylene)bis(4,1-phenylene))bis(oxy))bis(butane-4,1-diyl))dipiperidine]	0.9	–
c1cc(C(=C2C3CC4CC(C3)CC2C4)c2ccc(OCCCCN3CCCCCC3)cc2)ccc1OCCCCN1CCCCCC1 [NB-121, 1,1′-((((((5r,7r)-adamantan-2-ylidene)methylene)bis(4,1-phenylene))bis(oxy))bis(butane-4,1-diyl))bis(azepane)]	1.6	–
c1cc(C(=C2C3CC4CC(C3)CC2C4)c2ccc(OCCCCCN3CCCCC3)cc2)ccc1OCCCCCN1CCCCC1 [NB-122, 1,1′-((((((5r,7r)-adamantan-2-ylidene)methylene)bis(4,1-phenylene))bis(oxy))bis(pentane-5,1-diyl))dipiperidine]	1.2	–
c1cc(C(=C2C3CC4CC(C3)CC2C4)c2ccc(OCCCCCN3CCCCCC3)cc2)ccc1OCCCCCN1CCCCCC1 [NB-123, 1,1′-((((((5r,7r)-adamantan-2-ylidene)methylene)bis(4,1-phenylene))bis(oxy))bis(pentane-5,1-diyl))bis(azepane)]	1	–
CCN(CCO)CCCCCCOc1ccc(C(=C2C3CC4CC(C3)CC2C4)c2ccc(OCCCCCCN(CC)CCO)cc2)cc1 [NB-130, 2,2′-(((((((5r,7r)-adamantan-2-ylidene)methylene)bis(4,1-phenylene))bis(oxy))bis(hexane-6,1-diyl))bis(ethylazanediyl))bis(ethan-1-ol)]	1.2	PK p.o. AUC0-48 ([1]; mice, 40 mg/kg p.o.): too low to measure
OCCN(CCO)CCCCCCOc1ccc(C(=C2C3CC4CC(C3)CC2C4)c2ccc(OCCCCCCN(CCO)CCO)cc2)cc1 [NB-131, 2,2′,2″,2″′-(((((((5r,7r)-adamantan-2-ylidene)methylene)bis(4,1-phenylene))bis(oxy))bis(hexane-6,1-diyl))bis(azanetriyl))tetrakis(ethan-1-ol)]	0.9	PK p.o. AUC0-48 ([1]; mice, 40 mg/kg p.o.): too low to measure
OC1CCN(CCCCCCOc2ccc(C(=C3C4CC5CC(C4)CC3C5)c3ccc(OCCCCCCN4CCC(O)CC4)cc3)cc2)CC1 [NB-132, 1,1′-((((((5r,7r)-adamantan-2-ylidene)methylene)bis(4,1-phenylene))bis(oxy))bis(hexane-6,1-diyl))bis(piperidin-4-ol)]	1.6	–
c1cc(C(=C2C3CC4CC(C3)CC2C4)c2ccc(OCCCCCCN3CCC3)cc2)ccc1OCCCCCCN1CCC1 [NB-133, 1,1′-((((((5r,7r)-adamantan-2-ylidene)methylene)bis(4,1-phenylene))bis(oxy))bis(hexane-6,1-diyl))bis(azetidine)]	0.8	–
C[N+](CCO)(CCO)CCCCCCOc1ccc(C(=C2C3CC4CC(C3)CC2C4)c2ccc(OCCCCCC[N+](C)(CCO)CCO)cc2)cc1 [NB-135, 6,6′-(((((5r,7r)-adamantan-2-ylidene)methylene)bis(4,1-phenylene))bis(oxy))bis(N,N-bis(2-hydroxyethyl)-N-methylhexan-1-aminium) diiodide]	2.1	–
C[N+]1(CCCCCCOc2ccc(C(=C3C4CC5CC(C4)CC3C5)c3ccc(OCCCCCC[N+]4(C)CCC(O)CC4)cc3)cc2)CCC(O)CC1 (centres unmarked) [NB-136, 1,1′-((((((5r,7r)-adamantan-2-ylidene)methylene)bis(4,1-phenylene))bis(oxy))bis(hexane-6,1-diyl))bis(4-hydroxy-1-methylpiperidin-1-ium) diiodide]	1	–
C[N+]1(CCCCCCOc2ccc(C(=C3C4CC5CC(C4)CC3C5)c3ccc(OCCCCCC[N+]4(C)CCC4)cc3)cc2)CCC1 [NB-137, 1,1′-((((((5r,7r)-adamantan-2-ylidene)methylene)bis(4,1-phenylene))bis(oxy))bis(hexane-6,1-diyl))bis(1-methylazetidin-1-ium) diiodide]	2.3	–
OC[C@@H]1CCCN1CCCCCCOc1ccc(C(=C2C3CC4CC(C3)CC2C4)c2ccc(OCCCCCCN3CCC[C@H]3CO)cc2)cc1 [NB-138, ((2S,2'S)-((((((5r,7r)-adamantan-2-ylidene)methylene)bis(4,1-phenylene))bis(oxy))bis(hexane-6,1-diyl))bis(pyrrolidine-1,2-diyl))dimethanol]	0.7	PK p.o. AUC0-48 ([1]; mice, 40 mg/kg p.o.): 1.84 µM·h; PK p.o. t1/2 ([1]; mice, 40 mg/kg p.o.): 25.0 h
C[N+]1(CCCCCCOc2ccc(C(=C3C4CC5CC(C4)CC3C5)c3ccc(OCCCCCC[N+]4(C)CCC[C@H]4CO)cc3)cc2)CCC[C@H]1CO (stereo partly drawn) [NB-139, (1R,1′R,2S,2'S)-1,1′-((((((5r,7r)-adamantan-2-ylidene)methylene)bis(4,1-phenylene))bis(oxy))bis(hexane-6,1-diyl))bis(2-(hydroxymethyl)-1-methylpyrrolidin-1-ium) diiodide]	0.9	–
OCC[N+]1(CCCCCCOc2ccc(C(=C3C4CC5CC(C4)CC3C5)c3ccc(OCCCCCC[N+]4(CCO)CCCC4)cc3)cc2)CCCC1 [NB-140, 1,1′-((((((5r,7r)-adamantan-2-ylidene)methylene)bis(4,1-phenylene))bis(oxy))bis(hexane-6,1-diyl))bis(1-(2-hydroxyethyl)pyrrolidin-1-ium) diiodide]	1.6	–
OCC[N+]1(CCCCCCOc2ccc(C(=C3C4CC5CC(C4)CC3C5)c3ccc(OCCCCCC[N+]4(CCO)CCCCC4)cc3)cc2)CCCCC1 [NB-141, 1,1′-((((((5r,7r)-adamantan-2-ylidene)methylene)bis(4,1-phenylene))bis(oxy))bis(hexane-6,1-diyl))bis(1-(2-hydroxyethyl)piperidin-1-ium) diiodide]	3.6	–
OCC[N+]1(CCCCCCOc2ccc(C(=C3C4CC5CC(C4)CC3C5)c3ccc(OCCCCCC[N+]4(CCO)CCCCCC4)cc3)cc2)CCCCCC1 [NB-142, 1,1′-((((((5r,7r)-adamantan-2-ylidene)methylene)bis(4,1-phenylene))bis(oxy))bis(hexane-6,1-diyl))bis(1-(2-hydroxyethyl)azepan-1-ium) diiodide]	2.4	–
CC1(O)CN(CCCCCCOc2ccc(C(=C3C4CC5CC(C4)CC3C5)c3ccc(OCCCCCCN4CC(C)(O)C4)cc3)cc2)C1 [NB-143, 1,1′-((((((5r,7r)-adamantan-2-ylidene)methylene)bis(4,1-phenylene))bis(oxy))bis(hexane-6,1-diyl))bis(3-methylazetidin-3-ol)]	1.1	–
CC1(O)C[N+](C)(CCCCCCOc2ccc(C(=C3C4CC5CC(C4)CC3C5)c3ccc(OCCCCCC[N+]4(C)CC(C)(O)C4)cc3)cc2)C1 (centres unmarked) [NB-144, 1,1′-((((((5r,7r)-adamantan-2-ylidene)methylene)bis(4,1-phenylene))bis(oxy))bis(hexane-6,1-diyl))bis(3-hydroxy-1,3-dimethylazetidin-1-ium) diiodide]	1.8	–
OC1CN(CCCCCCOc2ccc(C(=C3C4CC5CC(C4)CC3C5)c3ccc(OCCCCCCN4CC(O)C4)cc3)cc2)C1 [NB-145, 1,1′-((((((5r,7r)-adamantan-2-ylidene)methylene)bis(4,1-phenylene))bis(oxy))bis(hexane-6,1-diyl))bis(azetidin-3-ol)]	0.9	PK p.o. AUC0-48 ([1]; mice, 40 mg/kg p.o.): too low to measure
(S)-1-(6-(4-((Z)-((5S,7S)-adamantan-2-ylidene)(4-chlorophenyl)methyl)phenoxy)hexyl)-1-methyl-1λ^4-piperidin-2-ylium iodide [NB-84]	–	IC50 (MCF7 cells; [2]): 6 µM
